Values joined by “and” are separate entries in the source; they are usually repeats but may differ in a detail not shown here. Equal values may be shown once.
Experiments:
[1] = test system: latently infected cell lines and primary T cells; conditions: cited from earlier work
HIV-1 = experiment: Plasma HIV RNA quantitative viral load (Cobas TaqMan HIV-1 Test v2.0), REDUC Part A; assay type: in vivo, human; conditions: for HIV VL: individual subjects 1101, 1102, 1103, 1105, 1106, 1107 = c1-c6, romidepsin 5 mg/m^2 i.v. days 0, 7, 14
Description: Part A of the clinical study contained three phases. […] Second, a viral reactivation phase of 3 weeks (visit 2 to visit 7) consisting of one cycle of romidepsin infusions at a dosing of 5 mg/m^2 administered intravenously over a 4 hour period. De-escalation down to 2.5 mg/m^2 was planned in case of dose-limiting toxicity was observed. Romidepsin was infused on days 0, 7, and 14. Third, a post-activation phase of ˜9 weeks (visit 8 to visit 11) to assess the effect of romidepsin on the size of latent HIV-1I reservoir.
Plasma HIV RNA, quantitative viral load, was measured by Cobas® TaqMan® HIV-1 Test, v2.0 (Roche) according the manufacturer's instruction (routine clinical assay). The lower limit of quantification for this assay is 20 copies HIV-1 RNA/mL, but it provides a qualitative assessment below this.

[2] = test system: Histone H3 acetylation in lymphocytes; experiment: Lymphocyte histone H3 acetylation by flow cytometry, REDUC clinical trial Part A; assay type: in vivo, human; parameters: key to Histone Acetylation, Mean: MFI, background (isotype control) MFI subtracted; conditions: for Histone Acetylation (anti-acetyl histone H3 MFI in lymphocytes): individual subjects 1101, 1102, 1103, 1105, 1106, 1107 = c1-c6; for Histone Acetylation (anti-acetyl histone H3 MFI in lymphocytes) / Histone Acetylation, Mean: romidepsin 5 mg/m^2 i.v. days 0, 7, 14; for Histone Acetylation, Mean: mean of subjects
Description: Part A of the clinical study contained three phases. First, a pre-treatment phase of 2-4 weeks (visit 1-visit 2a) to confirm the stability of the latent HIV-1 reservoir and determine baseline HIV-1 T lymphocyte specific immunity. Second, a viral reactivation phase of 3 weeks (visit 2 to visit 7) consisting of one cycle of romidepsin infusions at a dosing of 5 mg/m^2 administered intravenously over a 4 hour period. De-escalation down to 2.5 mg/m^2 was planned in case of dose-limiting toxicity was observed. Romidepsin was infused on days 0, 7, and 14. Third, a post-activation phase of ˜9 weeks (visit 8 to visit 11) to assess the effect of romidepsin on the size of latent HIV-1I reservoir.
Histone H3 acetylation was measured in lymphocytes using flow cytometry with intracellular cytokine staining on fresh isolated PBMCs. Freshly isolated PBMC's were fixated, permeabilised and stained with acetylation-specific antibodies, providing the possibility to evaluate epigenetic modifications on Histones (Rigby L, Muscat A, Ashley D, Algar E. Epigenetics 2012; 7(8):875-882). Briefly, PBMCs (1×10^6) were resuspended in 3 ml ice-cold PBS/1% FBS and centrifuged, then vortexed to dissolve pellet and fixative added, 100 μl 2% PFA (ice-cold), vortexed briefly and incubated on ice for 15 min. Cells were then washed in 4 ml PBS, resuspend in 200 μl PBS and stored at 4° C. until staining. Samples were washed with 3 ml FACS buffer and vortexed to dissolve cell pellet prior to adding 100 μl 0.2% Triton X-100, vortex briefly and incubate for 10 min. at room temperature (RT). Samples were then washed with FACS buffer, 600 μl Block (PBS/10% FBS) was added, sample vortexed to resuspend cell pellet and incubate for 20 min at RT. After washing with 3 ml FACS buffer 5 μl primary antibody Anti-acetyl histone H3 (rabbit) at 200 μg/ml (Merck Millipore) or isotype control at 200 μg/ml (normal rabbit serum, LifeTechnologie) was added, and samples vortexed to resuspend cell pellet, and incubated for 1 hour at RT. Following this samples […]), vortexed to resuspend cell pellet and incubated for 1 hour in the dark (RT). Finall samples were washed with FACS buffer and resuspended in 80 μl PBS and analyzed by FACS (50 000 events, anti-acetyl histone H3 Median Fluorescence Intensity, MFI, calculated by subtracting background MFI from isotype control).

[3] = visit 2A (day 0, pre-treatment)

For `C/C=C1\NC(=O)[C@H]2CSSCC/C=C/[C@H](CC(=O)N[C@H](C(C)C)C(=O)N2)OC(=O)[C@H](C(C)C)NC1=O` [romidepsin, (1S,4S,7Z,10S,16E,21R)-7-ethylidene-4,21-bis(1-methylethyl)-2-oxa-12,13-dithia-5,8,20,23-tetraazabicyclo[8.7.6]tricos-16-ene-3,6,9,19,22-pentone], the “activation of HIV-1 expression” value [1] is listed as “potently activates HIV-1 expression”, the “extracellular HIV RNA, change” value (HIV-1; as a result of romidepsin infusion) is listed as “significantly increased” and the “plasma HIV-1 RNA” value (HIV-1; at baseline) is listed as less than 20 copies/mL. For the same compound, the “patients with plasma HIV-1 RNA increased to readily quantifiable levels” value (HIV-1; at multiple post-infusion time-points) was 5 of 6, the “plasma HIV-1 RNA” value (HIV-1; range following the second infusion, standard clinical assay) was 46-103 copies/mL and the “HIV VL” value (HIV-1; visit 1 (day −21, pre-treatment)) was “LOQ (LOQ = “detectable” not quantifiable HIV RNA<20 c/mL) (3×) and 40 HIV RNA copies/mL plasma and LOD (2×)”. The “HIV VL” value (HIV-1; [3]) was “LOD”, the “HIV VL” value (HIV-1; visit 2B (day 0 + 4 h)) was “LOQ (LOQ = “detectable” not quantifiable HIV RNA<20 c/mL) and LOD (5×)” and the “HIV VL” value (HIV-1; visit 3 (day 1)) was 26 HIV RNA copies/mL plasma and LOD (2×) and LOQ (LOQ = “detectable” not quantifiable HIV RNA<20 c/mL) (2×) and 27 HIV RNA copies/mL plasma. The “HIV VL” value (HIV-1; visit 4 (day 3)) was “LOQ (LOQ = “detectable” not quantifiable HIV RNA<20 c/mL) and 32 HIV RNA copies/mL plasma and LOD (4×)”, the “HIV VL” value (HIV-1; visit 5A (day 7)) was “LOQ (LOQ = “detectable” not quantifiable HIV RNA<20 c/mL) and LOD (5×)” and the “HIV VL” value (HIV-1; visit 5B (day 7 + 4 h)) was 21 HIV RNA copies/mL plasma and LOD (3×) and 54 HIV RNA copies/mL plasma and LOQ (LOQ = “detectable” not quantifiable HIV RNA<20 c/mL). The “HIV VL” value (HIV-1; visit 6 (day 10)) was 59 HIV RNA copies/mL plasma and 74 HIV RNA copies/mL plasma and LOQ (LOQ = “detectable” not quantifiable HIV RNA<20 c/mL) and LOD and 46 HIV RNA copies/mL plasma and 103 HIV RNA copies/mL plasma, the “HIV VL” value (HIV-1; visit 7A (day 14)) was “LOD (5×) and LOQ (LOQ = “detectable” not quantifiable HIV RNA<20 c/mL)” and the “HIV VL” value (HIV-1; visit 7B (day 14 + 4 h)) was “LOQ (LOQ = “detectable” not quantifiable HIV RNA<20 c/mL) and LOD (5×)”. The “HIV VL” value (HIV-1; visit 9 (day 21)) was “LOQ (LOQ = “detectable” not quantifiable HIV RNA<20 c/mL) (3×) and LOD (3×)”, the “HIV VL” value (HIV-1; visit 10 (day 56)) was “LOD (3×) and 42 HIV RNA copies/mL plasma and LOQ (LOQ = “detectable” not quantifiable HIV RNA<20 c/mL) (2×)” and the “HIV VL” value (HIV-1; visit 11 (day 84)) was “LOQ (LOQ = “detectable” not quantifiable HIV RNA<20 c/mL) and LOD (4×) and 68 HIV RNA copies/mL plasma”. For the same compound, the “HIV VL” value (HIV-1; visit V8 (day 17)) was 22 HIV RNA copies/mL plasma and LOD (2×) and LOQ (LOQ = “detectable” not quantifiable HIV RNA<20 c/mL) and 119 HIV RNA copies/mL plasma, the “Lymphocyte histone H3 acetylation, maximum fold range relative to baseline” value ([2]; following each romidepsin administration, 5 mg/m^2) was 3.7-7.7 fold and the “Histone Acetylation (anti-acetyl histone H3 MFI in lymphocytes)” value [2, 3] was 1181 and 1258 and 562 and 1020 and 309 and 372. For the same compound, the “Histone Acetylation, Mean” value [2, 3] was 783.6667, the “Histone Acetylation (anti-acetyl histone H3 MFI in lymphocytes)” value ([2]; visit 2B (day 0 + 4 h)) was 3493 and 1534 and 3481 and 2473 and 2360 and 2463 and the “Histone Acetylation, Mean” value ([2]; visit 2B (day 0 + 4 h)) was 2634. The “Histone Acetylation (anti-acetyl histone H3 MFI in lymphocytes)” value ([2]; visit 3 (day 1)) was 3465 and 2197 and 2451 and 2216 and 2475 and 1757, the “Histone Acetylation, Mean” value ([2]; visit 3 (day 1)) was 2426.833 and the “Histone Acetylation (anti-acetyl histone H3 MFI in lymphocytes)” value ([2]; visit 4 (day 3)) was 3102 and 2964 and 3201 and 4130 and 3302 and 2767. For the same compound, the “Histone Acetylation, Mean” value ([2]; visit 4 (day 3)) was 3244.333, the “Histone Acetylation (anti-acetyl histone H3 MFI in lymphocytes)” value ([2]; visit 5A (day 7)) was 2065 and 2740 and 1284 and 2042 and 2863 and 596 and the “Histone Acetylation, Mean” value ([2]; visit 5A (day 7)) was 1931.667. The “Histone Acetylation (anti-acetyl histone H3 MFI in lymphocytes)” value ([2]; visit 5B (day 7 + 4 h)) was 5363 and 4597 and 4059 and 3198 and 4239 and 2214, the “Histone Acetylation, Mean” value ([2]; visit 5B (day 7 + 4 h)) was 3945 and the “Histone Acetylation (anti-acetyl histone H3 MFI in lymphocytes)” value ([2]; visit 6 (day 10)) was 2788 and 4124 and 3402 and 3859 and 3748 and 3280. The “Histone Acetylation, Mean” value ([2]; visit 6 (day 10)) was 3533.5, the “Histone Acetylation (anti-acetyl histone H3 MFI in lymphocytes)” value ([2]; visit 7A (day 14)) was 2486 and 3236 and 1789 and 1794 and 1438 and 1211 and the “Histone Acetylation, Mean” value ([2]; visit 7A (day 14)) was 1992.333. For the same compound, the “Histone Acetylation (anti-acetyl histone H3 MFI in lymphocytes)” value ([2]; visit 7B (day 14 + 4 h)) was 7228 and 3580 and 3317 and 4101 and 5467 and 3444, the “Histone Acetylation, Mean” value ([2]; visit 7B (day 14 + 4 h)) was 4522.833 and the “Histone Acetylation (anti-acetyl histone H3 MFI in lymphocytes)” value ([2]; visit 8 (day 17)) was 3875 and 4502 and 3147 and 3675 and 3572. For the same compound, the “Histone Acetylation, Mean” value ([2]; visit 8 (day 17)) was 3754.2, the “Histone Acetylation (anti-acetyl histone H3 MFI in lymphocytes)” value ([2]; visit 9 (day 21)) was 741 and 2416 and 1607 and 1923 and 1179 and 2467 and the “Histone Acetylation, Mean” value ([2]; visit 9 (day 21)) was 1722.167. The “Histone Acetylation (anti-acetyl histone H3 MFI in lymphocytes)” value ([2]; visit 10 (day 56)) was 1733 and 3579 and 2622 and 3035 and 1592 and 1865, the “Histone Acetylation, Mean” value ([2]; visit 10 (day 56)) was 2404.333 and the “Histone Acetylation (anti-acetyl histone H3 MFI in lymphocytes)” value ([2]; visit 11 (day 84)) was 1243 and 1823 and 1292 and 1287 and 1059 and 970. For the same compound, the “Histone Acetylation, Mean” value ([2]; visit 11 (day 84)) was 1279.

Reference: patent US10449245B2 (priority 2014, dated 2019)
